From patent US10111880B2, “Compounds for the treatment of diabetes and disease complications arising from same” (BEN-GURION UNIVERSITY OF THE NEGEV RESEARCH AND DEVELOPMENT …, priority 2013, dated 2018)
“Also recorded” adds a separate entry of the source.

Experiments:
[1] = test system: STZ-induced diabetic Wistar rats; experiment: Blood glucose in STZ-induced diabetic rats treated with AGS-500; type: in vivo, rat
Description: The effect of compounds of the present invention on diabetes per se, and disease complications arising as a result of diabetes was evaluated. Streptozotocin treatment of mice and rats are known in vivo diabetes models. Intraperitoneal injections of reduced STZ concentrations (35 mg/kg) was evaluated in mice and rats, in order to determine whether in a model causing only partial damage to pancreatic islet β-cells, whether the compounds of this invention would be helpful. Eight-week-old Wistar female rats received two doses of STZ administered intraperitoneally (60 or 35 mg/kg in 0.1M Citrate buffer; at 5-day intervals), which induced diabetes in all animal, since not all rats that received a single injection of STZ became diabetic in this model. These animals were then treated every 3 days with a subcutaneous injection of compound AGS-500 (6 mg/kg) for from 2-5 weeks to generate a Type I Diabetes phenotype. Blood glucose levels were monitored every 3 days in the rats. Ten weeks after the beginning of this study, each mice group was divided into 2 sub-groups, one of each also received insulin (4 U\Kg) every 2 days, except for the non-diabetic sub-groups. Acetic acid (1%) served as the vehicle control. Diabetes was diagnosed when non-fasting blood glucose levels were above 200 mg/dl. Extension of these studies included treatment of rats divided into 4 groups, as follows: 3 groups received 2 injections of STZ (35 mg/kg) at day 0′ and day 15′, serving as the diabetic group, while the non-diabetic group received 2 injections of Citrate buffer in accordance with the stated schedule. One diabetic group was administered AGS-500 intraperitoneally (6 mg/kg) every 12 hours (12 h) starting at day 4′, the second diabetic group received DMSO every 12 h starting at day 4′, and a third diabetic group was not injected with either AGS-500 or DMSO.

[2] = test system: STZ-induced diabetic ICR mice; experiment: Blood glucose in STZ-induced diabetic ICR mice, long-term AGS treatment (5 months) with or without insulin; type: in vivo, mouse; parameters: Blood Glucose At 101 day / Blood Glucose At 111 day: unit: mg/dL; details: for % reduction in blood glucose level / Blood glucose level Average: after 12 hours fast, day 142; for Blood glucose level Average: in mg/dL (unit assumed)
Description: [0182]7 week-old female ICR mice were intra-peritoneally injected with STZ (40 mg\Kg) for 5 consecutive days. Non-diabetic mice received citrate buffer (pH 4.3, cold), which served as the vehicle controls for this study. AGS-500 (6 mg\Kg) was then administered subcutaneously every 2 days, for 5 months, on the first day after STZ administration. A further control group, where DMSO was administered in accordance with this regimen, was included. Mice were divided into the following 6 groups (10 mice per group except STZ only-5 mice): • STZ only • STZ+DMSO • Citrate+DMSO 1% every day • STZ+AGS-499 (6 mg/kg) injected every day S.C • STZ+AGS-500 (6 mg/kg) injected every day S.C • STZ+AGS-500 (6 mg/kg) injected every other day S.C Mice were weighed and blood glucose levels were measured using a free style glucometer. Food consumption was also measured 24 hours prior to STZ injection. The concentration of STZ to be injected was calculated. STZ at 40 mg/kg was injected ip for 5 consecutive days. AGS treatment was administered one day following the last STZ injection. The establishment of diabetes was validated by the assessment of blood glucose levels performed every 3 days (at the beginning) and once a week after 59 days from the initiation of the experiment. Blood glucose levels over 200 mg/dl (measured 3 consecutive times) indicated a diabetic state. At 80 days from the initiation of the experiments each group was divided to 2 subgroups which received either insulin (4 units/kg) or acetic acid (0.015%) both in HEPES buffer (pH 7.45) injected every 48 hours. Mice were sacrificed after 5 months from the initiation of the experiments. Blood glucose levels were monitored every 3 days. Ten weeks after the beginning of this study, each group was divided into 2 sub-groups, one of each also received insulin (4 U\Kg) every 2 days, except for the non-diabetic sub-groups. Acetic acid (1%) served as the vehicle control.

[3] = test system: islets isolated from ICR mice; experiment: γ-H2AX staining in isolated islet cells treated with STZ; type: cell-based, mouse; details: STZ 1.5 mM; AGS-500 50 nM, 100 nM, 250 nM; 4 hours
Description: Islets were isolated from 8-10-week-old ICR mice. 30 islets in each group were treated with STZ (1.5 mM) and DMSO or AGS-500 in various concentrations (50 nM, 100 nM, 250 nM) for 4 hours. After 4 h incubation, the islets were enzymatically separated to single cells, cyto-spun and stained with γ-H2AX-specific antibody (A; representative picture—γ-H2AX (light grey), Dapi (dark grey)). Magnification: ×60.
The treatment of rats with AGS-compounds maintained a large β-cell mass in STZ-treated rats. In order to determine whether β-cell mass preservation was a result islet cell protection from STZ-induced DNA damage, γ-H2AX staining was assessed. Phosphorylated gamma H2AX (γ-H2AX) is essential for recognition and repair of DNA double strand breaks. H2AX histone becomes rapidly phosphorylated at its carboxyl terminus to form the so-called γ-H2AX at double strand break sites.
Islets were isolated from 8-10-week-old ICR mice and were treated with STZ (1.5 mM) and DMSO or AGS-500 in various concentrations (50 nM, 100 nM, 250 nM) for 4 hours. After a 4 h incubation, the islets were separated into single cells, cyto-spun, and stained with anti-γ-H2AX-specific antibody for the detection of DNA double strand breaks (FIG. 6).

[4] = STZ rats, AGS-500 6 mg/kg s.c. every 3 days

CC(c1cc(Br)c(O)c(Br)c1)(c1cc(Br)c(O)c(Br)c1)c1cc(Br)c(O)c(Br)c1 [AGS-500, 1,1,1-tris (4-hydroxy-3,5-dibromo-phenyl)-ethane]
Blood glucose levels [1, 4]: 275 ± 18 mg/dL
effect on the rat hyperglycemic state [1, 4]: no effect
blood glucose levels of non-fasting animals ([1]; rats, STZ 35 mg/kg day 0 and 15, AGS-500 6 mg/kg i.p. every 12 h from day 4, FIG. 1A): No reduction
fasting glucose levels (following 12 h fast) ([1]; rats, STZ 35 mg/kg day 0 and 15, AGS-500 6 mg/kg i.p. every 12 h from day 4, FIG. 1B): significant reduction of blood glucose levels to normal; also recorded: Reduction in Blood Glucose Level
blood glucose levels with time ([2]; AGS 500 every 48 hrs, without insulin): best effect in reducing blood glucose levels with time
circulating glucose levels, AGS-500 alone versus combined AGS-500 and insulin ([2]; FIG. 2F): greatest therapeutic effect
% reduction in blood glucose level ([2]; 6 mg/kg s.c. daily): 20%
Blood glucose level Average ([2]; 6 mg/kg s.c. daily): 317.4
% reduction in blood glucose level ([2]; 6 mg/kg s.c. every 48 hrs): 32%
Blood glucose level Average ([2]; 6 mg/kg s.c. every 48 hrs): 270
% reduction In blood Glucose 101 day ([2]; no insulin, daily): 15%
Blood Glucose At 101 day ([2]; no insulin, daily): 600
Blood Glucose At 111 day ([2]; no insulin, daily): 450
reduction In blood Glucose 111 day ([2]; no insulin, daily): 25%
% reduction In blood Glucose 101 day ([2]; no insulin, every 48 hrs): 43%
Blood Glucose At 101 day ([2]; no insulin, every 48 hrs): 400
Blood Glucose At 111 day ([2]; no insulin, every 48 hrs): 390
reduction In blood Glucose 111 day ([2]; no insulin, every 48 hrs): 35%
Blood Glucose At 101 day ([2]; with insulin (4 units/kg every 48 hours), AGS daily): 460
% reduction In blood Glucose 101 day ([2]; with insulin, AGS daily): 34%
Blood Glucose At 111 day ([2]; with insulin, AGS daily): 400
reduction In blood Glucose 111 day ([2]; with insulin, AGS daily): 34%
% reduction In blood Glucose 101 day ([2]; with insulin, AGS every 48 hrs): 32%
Blood Glucose At 101 day ([2]; with insulin, AGS every 48 hrs): 480
Blood Glucose At 111 day ([2]; with insulin, AGS every 48 hrs): 400
reduction In blood Glucose 111 day ([2]; with insulin, AGS every 48 hrs): 34%
number of γ-H2AX-stained cells [3]: dose-dependent decrease in the number of γ-H2AX-stained cells; also recorded: Reduced γ-H2AX Staining
